Data: PubChem BioAssay (NCI)
Values joined by “and” are separate entries in the source; they are usually repeats but may differ in a detail not shown here. Identical values can stand only once.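 Exposure lasted 48 hours, with cells grown in 96-well plates and compounds tested at five concentrations. Here, GI50 denotes the concentration required for 50% inhibition of growth. The concentration for full growth arrest is given as TGI.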

Assays:
Assay in all cases: growth of human tumour cells (NCI), 48 h
A498 renal = tested on: A498 renal
M14 melanoma = tested on: M14 melanoma
MDA-MB-435 = tested on: MDA-MB-435
NCI-H460 lung = tested on: NCI-H460 lung
PC-3 prostate = tested on: PC-3 prostate
SK-MEL-5 melanoma = tested on: SK-MEL-5 melanoma
SK-OV-3 ovarian = tested on: SK-OV-3 ovarian
UACC-257 melanoma = tested on: UACC-257 melanoma
UACC-62 melanoma = tested on: UACC-62 melanoma
UO-31 renal = tested on: UO-31 renal

| SMILES | GI50 (A498 renal) | TGI (A498 renal) | GI50 (M14 melanoma) | TGI (M14 melanoma) | GI50 (MDA-MB-435) | TGI (MDA-MB-435) | GI50 (NCI-H460 lung) | TGI (NCI-H460 lung) | GI50 (PC-3 prostate) | TGI (PC-3 prostate) | GI50 (SK-MEL-5 melanoma) | TGI (SK-MEL-5 melanoma) | GI50 (SK-OV-3 ovarian) | TGI (SK-OV-3 ovarian) | GI50 (UACC-257 melanoma) | TGI (UACC-257 melanoma) | GI50 (UACC-62 melanoma) | TGI (UACC-62 melanoma) | GI50 (UO-31 renal) | TGI (UO-31 renal) |
| --- | --- | --- | --- | --- | --- | --- | --- | --- | --- | --- | --- | --- | --- | --- | --- | --- | --- | --- | --- | --- |
| C=CCC1(O)c2cccc(NCCO)c2C(=O)c2c(NCCO)cccc21 | > 100 µM | > 100 µM | > 100 µM | > 100 µM | > 100 µM | > 100 µM | > 100 µM | > 100 µM | > 100 µM | > 100 µM | > 100 µM | > 100 µM | > 100 µM | > 100 µM | > 100 µM | > 100 µM | > 100 µM | > 100 µM | 95.7 µM | > 100 µM |
| COc1cc(/C=C2\CCC(CN(C)C)C2=O)ccc1OC(=O)c1ccccc1 (centres undefined) | – | 33.1 µM | – | 22.9 µM | – | 27.3 µM | – | 37.7 µM | – | 30 µM | – | 29.3 µM | – | 52.4 µM | – | 26.6 µM | – | 30.9 µM | – | 29.8 µM |
| CSc1ccc2c3c(n(C[C@H](O)CO)c(=O)c2c1)-c1ccccc1C3=O | 2.57 µM | 12.6 µM | 4.09 µM | 58.3 µM | 9.95 µM | > 100 µM | 0.476 µM | 2.33 µM | 3.42 µM | > 100 µM | 1.75 µM | 3.76 µM | 6.06 µM | 34.2 µM | 13.2 µM | 42.6 µM | 1.39 µM | 4.64 µM | 1.53 µM | 8.94 µM |
| COc1ccccc1C#Cc1ccccc1C#CCCCCCC#Cc1ccccc1C#Cc1ccccc1OC | > 100 µM | > 100 µM | 48.7 µM | > 100 µM | 83.8 µM | > 100 µM | > 100 µM | > 100 µM | > 100 µM | > 100 µM | > 100 µM | > 100 µM | > 100 µM | > 100 µM | > 100 µM | > 100 µM | > 100 µM | > 100 µM | > 100 µM | > 100 µM |
| Cn1cc(-c2cnc3ccc4ccc(CS(=O)(=O)NCc5ccccn5)cc4c(=O)c3c2)cn1 | 18.1 µM | > 55.6 µM | 11.9 µM | 33.6 µM | 3.33 µM | 27.5 µM | 15.7 µM | 49.7 µM | 31.3 µM | > 100 µM | 11.3 µM | 24 µM | 26.5 µM | > 100 µM | 15 µM | 32.2 µM | 12.5 µM | 39.4 µM | 12.6 µM | > 100 µM |
| O=c1cc(-c2ccccc2)[nH]n1-c1nc2ccccc2[nH]1 | 3.72 µM | 22.9 µM | 2.71 µM | > 100 µM | 5.07 µM | > 100 µM | 2.51 µM | > 100 µM | 4.22 µM | 44.5 µM | 5.18 µM | 23.4 µM | 8.58 µM | > 100 µM | 6.18 µM | > 100 µM | 3.1 µM | 13.8 µM | 5.68 µM | 67.6 µM |
| NS(=O)(=O)c1cccc(N=Cc2c(O)[nH]c3ccccc23)c1 | > 25 µM | > 25 µM | > 25 µM | > 25 µM | > 25 µM | > 25 µM | > 25 µM | > 25 µM | > 25 µM | > 25 µM | > 25 µM | > 25 µM | > 18.5 µM | > 25 µM | > 25 µM | > 25 µM | > 25 µM | > 25 µM | > 22.7 µM | > 25 µM |
| c1ccc(-n2nnnc2-c2cccc3ccccc23)cc1 | 0.704 µM | > 55.3 µM | 0.365 µM | 8.81 µM | 0.121 µM | 0.489 µM | 0.442 µM | > 42.4 µM | 1.14 µM | > 100 µM | 0.462 µM | 20.2 µM | 0.908 µM | 13.5 µM | 27.8 µM | > 100 µM | 0.666 µM | > 100 µM | 2.16 µM | 61.1 µM |
| N#CC1=C(N)NC(=O)NC12Nc1ccccc1S2 (centres undefined) | 16.5 µM | 36.8 µM | 19.7 µM | 42.5 µM | 31.7 µM | > 88.4 µM | 23.6 µM | > 70.9 µM | 28 µM | > 57.9 µM | 17.5 µM | 33.2 µM | 30.3 µM | > 70.7 µM | 1.42 µM | – | 14.7 µM | 36.4 µM | 36.2 µM | > 100 µM |
| Cc1cc(Cc2cc(C)cc(C(C)(C)C)c2O)c(O)c(C(C)(C)C)c1 | 12.9 µM | 25.5 µM | 11.1 µM | 23 µM | 7.82 µM | 22.2 µM | 3.64 µM | 12 µM | 5.15 µM | 18.6 µM | 10.6 µM | 22.4 µM | 11.9 µM | 24.2 µM | 9.55 µM | 21.8 µM | 10.4 µM | 22.2 µM | 4.58 µM | 19 µM |
| Cc1cc(Nc2ncnc3ccc(NC4=NC(C)(C)CO4)cc23)ccc1Oc1ccn2ncnc2c1 | 4.1 µM and > 10 µM | 24.8 µM and > 10 µM | 14.6 µM and > 10 µM | 33.1 µM and > 10 µM | 16.4 µM and > 10 µM | 36.9 µM and > 10 µM | 17.9 µM and > 10 µM | 39.6 µM and > 10 µM | 15.7 µM and > 10 µM | 66.6 µM and > 10 µM | 9.59 µM and 9.83 µM | 22.3 µM and > 10 µM | 0.0526 µM | > 94.1 µM | 16.9 µM and > 10 µM | 33.1 µM and > 10 µM | 12.5 µM and > 10 µM | 30.3 µM and > 10 µM | 6.29 µM and > 10 µM | 84.4 µM and > 10 µM |
| COc1ccc(Cl)cc1NC(=O)C(Br)C(Br)C(=O)O (centres undefined) | 27.5 µM | 73.2 µM | 14.9 µM | 34.9 µM | 4.27 µM | 20.7 µM | 38 µM | > 100 µM | 13.4 µM | > 100 µM | 2.39 µM | 7.1 µM | > 100 µM | > 100 µM | 11 µM | 40.5 µM | 2.81 µM | 8.93 µM | 19.2 µM | 43.6 µM |
| O=C(O)c1ccc(N/C=C2\C(=O)c3ccccc3OC2O)cc1O (centres undefined) | 36.9 µg/mL | 83.9 µg/mL | 21.5 µg/mL | 47.5 µg/mL | 20.2 µg/mL | 68.4 µg/mL | 32.3 µg/mL | 78.3 µg/mL | 31.6 µg/mL | 107 µg/mL | 17.6 µg/mL | 37.6 µg/mL | 28.8 µg/mL | 74.6 µg/mL | 28.9 µg/mL | 93.1 µg/mL | 17.4 µg/mL | 52.4 µg/mL | 6.68 µg/mL | 36.4 µg/mL |
| CC(=O)O/N=C1/C(c2c(O)[nH]c3cc(Br)ccc23)=Nc2ccccc21 | 0.429 µM | 1.2 µM | 2 µM | 4.88 µM | 1.63 µM | 3.2 µM | 1.24 µM | 3.33 µM | 1.33 µM | 3.51 µM | 0.524 µM | 1.33 µM | 0.421 µM | 1.96 µM | 2.26 µM | 4.38 µM | 1.17 µM | 2.75 µM | 0.653 µM | 2.4 µM |
| COc1ccc2c(c1)C(c1ccccc1Cl)=Nc1c(n[nH]c1C)N2 | 1.88 µM | > 25 µM | > 25 µM | > 25 µM | > 25 µM | > 25 µM | 18.5 µM | > 25 µM | > 22.7 µM | > 25 µM | > 25 µM | > 25 µM | > 25 µM | > 25 µM | > 25 µM | > 25 µM | 25 µM | > 25 µM | 13.9 µM | > 25 µM |
| Cc1cc(C)c(O)c(CN(C)Cc2cc(Cl)cc(Cl)c2O)c1 | 5.69 µM | 21.9 µM | 9.17 µM | 22.8 µM | 6.16 µM | 30.2 µM | 3.49 µM | 13.7 µM | 6.97 µM | 42.3 µM | 5.57 µM | 18.2 µM | 6.48 µM | 33 µM | 3.14 µM | 12.1 µM | 3.42 µM | 13.1 µM | 1.64 µM | 6.58 µM |
